Experimental data reported in patent US9284317B2, “Substituted imidazo[1,2-a]pyrazines as MPS-1 inhibitors” (Bayer Intellectual Property GmbH, priority 2010, dated 2016).

Each compound was assayed against human kinase Mps-1 (N-terminally GST-tagged human full length recombinant Mps-1 kinase) (Homo sapiens (Human), UniProt P33981) (assay: Mps-1 Kinase Assay (TR-FRET)). Conditions: 10 μM ATP, 1 μM biotinylated peptide substrate, 60 min at 22° C., read-out: Mps1 IC50.
Assay type: biochemical
Method: The human kinase Mps-1 phosphorylates a biotinylated substrate peptide. Detection of the phosphorylated product is achieved by time-resolved fluorescence resonance energy transfer (TR-FRET) from Europium-labelled anti-phospho-Serine/Threonine antibody as donor to streptavidin labelled with cross-linked allophycocyanin (SA-XLent) as acceptor. Compounds are tested for their inhibition of the kinase activity.
N-terminally GST-tagged human full length recombinant Mps-1 kinase (purchased from Invitrogen, Karslruhe, Germany, cat. no PV4071) was used. As substrate for the kinase reaction a biotinylated peptide of the amino-acid sequence […] (C-terminus in amide form, purchased from Biosynthan GmbH, Berlin) was used.
The concentration of Mps-1 in the assay was adjusted to the activity of the enzyme lot and was chosen appropriate to have the assay in the linear range, typical enzyme concentrations were in the range of about 1 nM (final conc. in the 5 μl assay volume).
The resulting mixture was incubated 1 h at 22° C. to allow the binding of the phosphorylated peptide to the anti-phospho(Ser/Thr)-Europium-antibody. Subsequently the amount of phosphorylated substrate was evaluated by measurement of the resonance energy transfer from the Europium-labelled anti-phospho(Ser/Thr) antibody to the Streptavidin-XLent.

human kinase Mps-1 (N-terminally GST-tagged human full length recombinant Mps-1 kinase), sequence (P33981 whole entry): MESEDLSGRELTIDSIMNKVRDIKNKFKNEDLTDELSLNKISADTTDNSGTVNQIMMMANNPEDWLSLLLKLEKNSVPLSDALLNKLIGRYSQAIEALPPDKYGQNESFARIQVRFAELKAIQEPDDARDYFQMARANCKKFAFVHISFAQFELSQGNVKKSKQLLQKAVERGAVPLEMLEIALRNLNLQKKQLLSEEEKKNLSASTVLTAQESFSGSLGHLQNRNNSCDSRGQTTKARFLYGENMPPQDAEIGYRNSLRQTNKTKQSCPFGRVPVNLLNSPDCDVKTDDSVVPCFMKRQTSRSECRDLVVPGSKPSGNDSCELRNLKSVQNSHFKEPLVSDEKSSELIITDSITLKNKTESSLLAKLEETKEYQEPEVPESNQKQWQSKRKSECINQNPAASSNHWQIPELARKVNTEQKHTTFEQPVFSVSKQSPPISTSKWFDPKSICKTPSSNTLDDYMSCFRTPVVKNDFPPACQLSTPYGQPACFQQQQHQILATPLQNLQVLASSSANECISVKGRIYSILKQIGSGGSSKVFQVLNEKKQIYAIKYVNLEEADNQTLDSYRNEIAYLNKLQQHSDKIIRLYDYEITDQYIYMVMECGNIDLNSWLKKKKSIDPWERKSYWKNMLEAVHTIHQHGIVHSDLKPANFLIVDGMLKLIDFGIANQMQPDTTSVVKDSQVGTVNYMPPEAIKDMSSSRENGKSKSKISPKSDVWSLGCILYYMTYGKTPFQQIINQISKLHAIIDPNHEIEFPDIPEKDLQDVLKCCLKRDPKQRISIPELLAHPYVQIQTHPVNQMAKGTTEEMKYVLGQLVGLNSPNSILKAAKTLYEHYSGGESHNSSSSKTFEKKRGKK

Compound	IC50 [nM]
C/C=C/c1cn2c(-c3ccc(C(=O)NC4CC4)cc3)cnc2c(NCC(C)C)n1 [Example 1-1, N-cyclopropyl-4-{8-[(2-methylpropyl)amino]-6-[(1E)-prop-1-en-1-yl]imidazo[1,2-a]pyrazin-3-yl}benzamide]	6.2
COCc1cccc(-c2cn3c(-c4ccc(C(=O)NC5CC5)cc4)cnc3c(NCC(C)C)n2)c1 [Example 1-2, N-cyclopropyl-4-{6-[3-(methoxymethyl)phenyl]-8-[(2-methylpropyl)amino]imidazo[1,2-a]pyrazin-3-yl}benzamide]	7.1
CC(C)CNc1nc(C2=CCCCC2)cn2c(-c3ccc(C(=O)NC4CC4)cc3)cnc12 [Example 1-3, 4-{6-(cyclohex-1-en-1-yl)-8-[(2-methylpropyl)amino]imidazo[1,2-a]pyrazin-3-yl}-N-cyclopropylbenzamide]	4.2
C/C=C(/C)c1cn2c(-c3ccc(C(=O)NC4CC4)cc3)cnc2c(NCC(C)C)n1 [Example 1-4, 4-{6-[(2Z)-but-2-en-2-yl]-8-[(2-methylpropyl)amino]imidazo[1,2-a]pyrazin-3-yl}-N-cyclopropylbenzamide]	1.9
CC(C)CNc1nc(C2CC2)cn2c(-c3ccc(C(=O)NC4CC4)cc3)cnc12 [Example 1-5, N-cyclopropyl-4-{6-cyclopropyl-8-[(2-methylpropyl)amino]imidazo[1,2-a]pyrazin-3-yl}benzamide]	6.2
CC(C)CNc1nc(C2CC=CCC2)cn2c(-c3ccc(C(=O)NC4CC4)cc3)cnc12 (centres unmarked) [Example 1-6, 4-{6-(cyclohex-3-en-1-yl)-8-[(2-methylpropyl)amino]imidazo[1,2-a]pyrazin-3-yl}-N-cyclopropylbenzamide]	2.8
C/C=C(\C)c1cn2c(-c3ccc(C(=O)NC4CC4)cc3)cnc2c(NCC(C)C)n1 [Example 1-7, 4-{6-[(2E)-but-2-en-2-yl]-8-[(2-methylpropyl)amino]imidazo[1,2-a]pyrazin-3-yl}-N-cyclopropylbenzamide]	4.1
C=C(C)c1cn2c(-c3ccc(C(=O)NC4CC4)cc3)cnc2c(NCC(C)C)n1 [Example 1-9, N-cyclopropyl-4-{8-[(2-methylpropyl)amino]-6-(prop-1-en-2-yl)imidazo[1,2-a]pyrazin-3-yl}benzamide]	5.8
C/C=C/c1cn2c(-c3ccc(C(=O)NC4CC4)c(Cl)c3)cnc2c(NCC(C)C)n1 [Example 1-10, 2-chloro-N-cyclopropyl-4-{8-[(2-methylpropyl)amino]-6-[(1E)-prop-1-en-1-yl]imidazo[1,2-a]pyrazin-3-yl}benzamide]	72.3
C/C=C/c1cn2c(-c3ccc(C(=O)NC4CC4)c(Cl)c3)cnc2c(NCCC(F)(F)F)n1 [Example 1-11, 2-chloro-N-cyclopropyl-4-{6-[(1E)-prop-1-en-1-yl]-8-[(3,3,3-trifluoropropyl)amino]imidazo[1,2-a]pyrazin-3-yl}benzamide]	34.3
C/C=C/c1cn2c(-c3ccc(C(=O)NC4CC4)c(Cl)c3)cnc2c(NCC(C)(C)O)n1 [Example 1-12, 2-chloro-N-cyclopropyl-4-{8-[(2-hydroxy-2-methylpropyl)amino]-6-[(1E)-prop-1-en-1-yl]imidazo[1,2-a]pyrazin-3-yl}benzamide]	132
C/C=C/c1cn2c(-c3ccc(C(=O)NC4CC4)c(Cl)c3)cnc2c(NCc2ccnn2C)n1 [Example 1-13, 2-chloro-N-cyclopropyl-4-(8-{[(1-methyl-1H-pyrazol-5-yl)methyl]amino}-6-[(1E)-prop-1-en-1-yl]imidazo[1,2-a]pyrazin-3-yl)benzamide]	70.6
C/C=C/c1cn2c(-c3ccc(C(=O)NC4CC4)c(F)c3)cnc2c(NCC(C)C)n1 [Example 1-14, N-cyclopropyl-2-fluoro-4-{8-[(2-methylpropyl)amino]-6-[(1E)-prop-1-en-1-yl]imidazo[1,2-a]pyrazin-3-yl}benzamide]	38.7
C/C=C/c1cn2c(-c3ccc(C(=O)NC4CC4)c(F)c3)cnc2c(NCCC(F)(F)F)n1 [Example 1-15, N-cyclopropyl-2-fluoro-4-{6-[(1E)-prop-1-en-1-yl]-8-[(3,3,3-trifluoropropyl)amino]imidazo[1,2-a]pyrazin-3-yl}benzamide]	15.4
C/C=C/c1cn2c(-c3ccc(C(=O)NC4CC4)c(F)c3)cnc2c(NCC(C)(C)O)n1 [Example 1-16, N-cyclopropyl-2-fluoro-4-{8-[(2-hydroxy-2-methylpropyl)amino]-6-[(1E)-prop-1-en-1-yl]imidazo[1,2-a]pyrazin-3-yl}benzamide]	46.5
C/C=C/c1cn2c(-c3ccc(C(=O)NC4CC4)c(F)c3)cnc2c(NCC2CCCO2)n1 (centres unmarked) [Example 1-17, N-cyclopropyl-2-fluoro-4-{6-[(1E)-prop-1-en-1-yl]-8-[(tetrahydrofuran-2-ylmethyl)amino]imidazo[1,2-a]pyrazin-3-yl}benzamide]	99.2
C/C=C/c1cn2c(-c3ccc(C(=O)NC4CC4)c(F)c3)cnc2c(NCc2ccnn2C)n1 [Example 1-18, N-cyclopropyl-2-fluoro-4-(8-{[(1-methyl-1H-pyrazol-5-yl)methyl]amino}-6-[(1E)-prop-1-en-1-yl]imidazo[1,2-a]pyrazin-3-yl)benzamide]	31.9
C=Cc1ccc(-c2cn3c(-c4ccc(C(=O)NC5CC5)cc4)cnc3c(NCC(C)C)n2)cc1 [Example 1-20, N-cyclopropyl-4-{6-(4-ethenylphenyl)-8-[(2-methylpropyl)amino]imidazo[1,2-a]pyrazin-3-yl}benzamide]	21.4

More lines, now with the values ahead:

IC50 [nM]	Compound
8.3	CC(C)(C)OC(=O)NCCCNc1nc(-c2ccncc2)cn2c(-c3ccc(C(=O)NC4CC4)cc3)cnc12 [Example 2-1, tert-butyl [3-({3-[4-(cyclopropylcarbamoyl)phenyl]-6-(pyridin-4-yl)imidazo[1,2-a]pyrazin-8-yl}amino)propyl]carbamate]
94.6	CC(C)(C)OC(=O)NCC#CCCNc1nc(-c2ccccc2)cn2c(-c3ccc(C(=O)NC4CC4)cc3)cnc12 [Example 2-2, tert-Butyl [5-({3-[4-(cyclopropylcarbamoyl)phenyl]-6-phenylimidazo[1,2-a]pyrazin-8-yl}amino)pent-2-yn-1-yl]carbamate]
64	CC(C)(C)OC(=O)NC/C=C/CCNc1nc(-c2ccccc2)cn2c(-c3ccc(C(=O)NC4CC4)cc3)cnc12 [Example 2-3, tert-Butyl [(2E)-5-({3-[4-(cyclopropylcarbamoyl)phenyl]-6-phenylimidazo[1,2-a]pyrazin-8-yl}amino)pent-2-en-1-yl]carbamate]
12.3	CC(C)(C)OC(=O)NC/C=C\CCNc1nc(-c2ccccc2)cn2c(-c3ccc(C(=O)NC4CC4)cc3)cnc12 [Example 2-4, tert-Butyl [(2Z)-5-({3-[4-(cyclopropylcarbamoyl)phenyl]-6-phenylimidazo[1,2-a]pyrazin-8-yl}amino)pent-2-en-1-yl]carbamate]
12.6	CC(C)CNc1nc(C2CCCCC2)cn2c(-c3ccc(C(=O)NC4CC4)cc3)cnc12 [Example 4-1, 4-{6-cyclohexyl-8-[(2-methylpropyl)amino]imidazo[1,2-a]pyrazin-3-yl}-N-cyclopropylbenzamide]
6.1	CC(C)CNc1nc(C2CCCC2)cn2c(-c3ccc(C(=O)NC4CC4)cc3)cnc12 [Example 4-2, 4-{6-cyclopentyl-8-[(2-methylpropyl)amino]imidazo[1,2-a]pyrazin-3-yl}-N-cyclopropylbenzamide]
1.9	CC(C)CNc1nc(/C=C2\CCC(=O)N2C)cn2c(-c3ccc(C(=O)NC4CC4)cc3)cnc12 [Example 5-1, N-cyclopropyl-4-{6-[(E)-(1-methyl-5-oxopyrrolidin-2-ylidene)methyl]-8-[(2-methylpropyl)amino]imidazo[1,2-a]pyrazin-3-yl}benzamide]
10.4	CC(C)CNc1nc(NC(=O)c2ccccn2)cn2c(-c3ccc(C(=O)NC4CC4)cc3)cnc12 [Example 6-1, N-{3-[4-(cyclopropylcarbamoyl)phenyl]-8-[(2-methylpropyl)amino]imidazo[1,2-a]pyrazin-6-yl}pyridine-2-carboxamide]
